No end group written: not given here. *: point of attachment. Biotin = O=C1N[C@H]2[C@H](CS[C@H]2CCCCC(=O)*)N1
How the values were obtained:
retromer (Vps35) = biological target: T1, retromer (Vps35) (Homo sapiens, UniProt O75436+Q96QK1); experiment: Biotinylated peptide pull-down from HeLa S3 lysate, blot for Vps35; format: binding; details: streptavidin pull-down
T1 construct: endogenous in cells; host or cells: HeLa S3 lysate (RIPA-MOPS buffer)
Procedure: For peptide pull-down experiments, N-terminal biotinylated L2 peptides (sequences shown in FIG. 2A) were purchased from ABClonal Science (Woburn, MA) at >95% purity. L2 wild-type was dissolved initially in 30% acetic acid and DMSO (˜70 μl each), and then dissolved in sterile deionized water with 0.01% sodium azide. L2-6A, L2-3R and L2-DM were initially solubilized in a small amount of DMSO (˜70-80 μl) and then dissolved in sterile deionized water with 0.01% sodium azide. Peptide stocks (5 mg/ml) were aliquoted and stored at −20° C. HeLa S3 cells plated in six-well plates were lysed at ˜80% confluency with 500 μl RIPA-MOPS buffer (20 mM morpholinepropanesulfonic acid [pH 7.0], 150 mM NaCl, 1% Nonidet P-40, 1 mM EDTA, 1% deoxycholic acid, 0.1% sodium dodecyl sulfate [SDS]) supplemented with protease inhibitors (1×HALT protease and phosphatase inhibitor cocktail (Thermo Scientific, Waltham, MA; #78443)). The lysate was centrifuged at 14,000 rpm for 20 min, and the supernatant was incubated with 10 μg of a biotinylated peptide for two h at 4° C. Fifty μl of streptavidin agarose beads slurry (Pierce, Rockford, IL; #20349) was added, and the mixture was gently rocked for 45 min at 4° C. […] Samples were analyzed by SDS-PAGE and immunoblotting with antibody recognizing Vps35 (Abcam, Cambridge, MA; ab57632).

HaCaT cells = experiment: Modulation of CPP action by flanking sequences, GFP fusion proteins on HaCaT cells; format: cell-based, human
Procedure: Fusion proteins with various segments of the C-terminus of HPV16 or HPV5 L2 were added to HaCaT cells. The sequences used are as follows:
In some cases, various concentrations of fusion proteins were added to assess efficacy. In other cases, the pH of the culture medium was physiological pH 7 or adjusted to acidic pH 4 prior to peptide addition, or the cells were incubated with peptide at physiological temperature of 37° C. or at 30° C. Activity was assessed by confocal microscopy for intracellular fluorescence. In some experiments, cell surface fluorescence was extinguished by treatment with the membrane-impermeable fluorescence quencher, trypan blue.

HPV16 PsV = HPV16 PsV infectivity in HeLa S3 cells with chemical inhibitors; format: cell-based; details: MOI of one, 48 h.p.i.
Procedure: 5×10^4 HeLa S3 or HaCaT cells in 12-well plates were incubated with PsVs at MOI of approximately one. The number of packaged reporter plasmids required to achieve this MOI as assessed by flow cytometry for reporter gene expression from wild-type PsV was quantified by qPCR, and an equivalent number of genomes in mutant PsV were used to infect cells. Approximately five-fold more virus was used to attain this MOI in HaCaT cells. Cells were analyzed by flow cytometry on a Stratedigm-12 flow cytometer to determine the fraction of cells displaying HcRed fluorescence 48 h.p.i. To measure dependence on retromer, 1×10^5 HeLa S3 cells in a 12-well plate were transfected […] to infection with 10 pmol siRNAs targeting Vps29 (Dharmacon, Lafayette, CO; #D-009764-03) or Vps35 (Dharmacon, #D-010894-01) by using RNAiMAX (Thermo Fisher, Waltham, MA, #13778100) according to manufacturer's protocol. Cells transfected with a 10 pmol RISC-free siRNA were used as a control. Forty-eight h.p.i., infectivity was measured by flow cytometry for reporter gene expression. […] Forty-eight h.p.i., infectivity was measured by flow cytometry for HcRed expression. […] Forty-eight h.p.i., infectivity was measured by flow cytometry for HcRed expression.

[1] = tested on: HPV16 PsV containing GFP11-tagged L2; experiment: Split GFP assay with aphidicolin, HaCaT/GFP1-10NES cells; format: cell-based; details: 6 μM, MOI of 2000, three h.p.i.
Procedure: FIG. 12A depicts HeLa S3 cells left untreated or treated with 6 μM aphidicolin. Twenty-four h later, cells were infected at MOI of one with wild-type HPV16 PsV or PsV containing L2-GFP11-CPP or L2-CPP-GFP11. Forty-eight h.p.i., the fraction of infected cells was determined by flow cytometry for HcRed fluorescence and normalized to untreated cells infected with wild-type HPV16 PsV. FIG. 12B depicts HaCaT/GFP1-10NES cells infected at an MOI of 2000 with wild-type HPV16 PsV or PsV containing GFP11-tagged L2 in the presence of absence of 6 μM aphidicolin. Three h.p.i., cells were examined by confocal microscopy for reconstituted GFP fluorescence. Fluorescence in individual cells (˜250 for each condition) is plotted from two independent experiments. […]
Generation of stable cell lines. […] Single cells were then plated in a 96-well plate, and monoclonal cell lines were isolated and tested by infection of HPV16-CPP-GFP11 PsV at ˜2000 MOI and monitoring fluorescence. […] Images were acquired with a Leica SP5 inverted fluorescence microscope to identify cell lines expressing cytoplasmic GFP1-10NES. […] Twenty-four hours later, live cells were examined by fluorescence microscopy. […] Twenty-four h later, live cells were examined by fluorescence microscopy. As expected, fluorescence with GFP11-CD8-CIMPR was reconstituted only when the GFP1-10 segment was luminal (FIG. 8F). […]

[2] = tested on: wild-type HPV16 pseudovirus; experiment: Peptide inhibition experiment with L2-C, HeLa cells; format: cell-based; details: 4 μg peptide, infectivity 48 hours later
Procedure: HeLa cells were treated at 37° C. with 4 μg L2-C, a peptide containing the HPV16 L2 retromer binding site and CPP or mock treated. B represents N terminal biotinylation and Am represents C-terminal amidation. Two hours later, the cells were infected for two hours at 37° C. with wild-type HPV16 pseudovirus. Cells were washed and medium was replenished with medium containing the peptide for 24 hours. Infectivity was tested 48 hours later by using flow cytometry to measure fluorescence of HcRed expressed from a plasmid encapsidated in the pseudovirus particle. Similar results were obtained in two independent experiments.
HeLa cells were left untreated or treated at 37° C. with 4 μg L2-C, a peptide containing the HPV16 L2 retromer binding site and CPP. The sequence of L2-C is as follows: B-[…]-Am, (SEQ ID NO: 533), where B represents N-terminal biotinylation and Am represents C-terminal amidation. Two hours later, the cells were infected for two hours at 37° C. with wild-type HPV16 pseudovirus. Cells were washed and medium was replenished with medium containing the peptide for 24 hours. Infectivity was tested 48 hours later by using flow cytometry to measure fluorescence of HcRed expressed from a reporter plasmid encapsidated in the pseudovirus particle, and normalized to infectivity of cells infected in the absence of peptide. Similar results were obtained in two independent experiments.

L2-3R: N-terminal biotinylated C-terminal L2 peptide with the 3R mutation (Biotin-SPQYTIIADAGDFYLHPSYYMLRRR)
retromer binding of L2 peptide in vitro (retromer (Vps35)): did not affect retromer binding

His6-GFP-linker-PQYTIIADAGDFYLHPSYYMLRKRRKRLPYFFSDVSLAA [GFP-HPV16 L2]
cell binding and entry at pH 4 (HaCaT cells; three hours at 37° C., pH 4): well | cell binding and entry at pH 7 (HaCaT cells; three hours at 37° C.): poorly

His6-GFP-linker-RKRRKR
cell binding and entry at pH 7 (HaCaT cells; three hours at 37° C.): active in cell binding and internalization, but is not as efficient

C[C@H](NC(=O)Cc1cc(F)cc(F)c1)C(=O)N[C@H]1N=C(c2ccccc2)c2ccccc2N(C)C1=O [XXI]
inhibition of wild-type and L2-Tat PsV infection (HPV16 PsV; 250 nM, pretreated one h): near-complete inhibition

C[C@@]1(CO)[C@H](O)CC[C@@]2(C)[C@H]1CC[C@H]1C[C@@H]3C[C@@]12CC[C@]3(O)CO [aphidocolin, aphidicolin]
effect on HPV infection (HPV16 PsV; 6 μM, pretreated 24 h): inhibited infection | reconstituted GFP signal [1]: did not decrease the reconstituted GFP signal

B-SPQYTIIADAGDFYLHPSYYMLRKRRKR-Am [L2-C]
inhibition of infection by HPV16 PsV [2]: dramatic inhibition of infection

His6-GFP-linker-IPVVIIHPHDSTGDFYLHPSLHRRKRKRKYL [GFP fusion protein with HPV5 C-terminus]
cell binding, temperature dependence (HaCaT cells; three hours, 30° C. or 37° C.): better at 30 °C than at 37 °C

His6-GFP-linker-PQYTIIADAGDFYLHPSYYMLRKRRKR [GFP-21P-CPP]
cell binding and entry at pH 7 (HaCaT cells; three hours at 37° C.): binds
